Laboratory results published in patent US20230414826A1, “FIBRIN HYDROGELS” (Mayo Foundation for Medical Education and Research, priority 2020, published 2023).

Target: T1, fibrinogen and thrombin (clinical standard from the manufacturer) (Homo sapiens, UniProt P02671+P02675+P02679)
T1 sequence (P02671 20-629 limits assumed): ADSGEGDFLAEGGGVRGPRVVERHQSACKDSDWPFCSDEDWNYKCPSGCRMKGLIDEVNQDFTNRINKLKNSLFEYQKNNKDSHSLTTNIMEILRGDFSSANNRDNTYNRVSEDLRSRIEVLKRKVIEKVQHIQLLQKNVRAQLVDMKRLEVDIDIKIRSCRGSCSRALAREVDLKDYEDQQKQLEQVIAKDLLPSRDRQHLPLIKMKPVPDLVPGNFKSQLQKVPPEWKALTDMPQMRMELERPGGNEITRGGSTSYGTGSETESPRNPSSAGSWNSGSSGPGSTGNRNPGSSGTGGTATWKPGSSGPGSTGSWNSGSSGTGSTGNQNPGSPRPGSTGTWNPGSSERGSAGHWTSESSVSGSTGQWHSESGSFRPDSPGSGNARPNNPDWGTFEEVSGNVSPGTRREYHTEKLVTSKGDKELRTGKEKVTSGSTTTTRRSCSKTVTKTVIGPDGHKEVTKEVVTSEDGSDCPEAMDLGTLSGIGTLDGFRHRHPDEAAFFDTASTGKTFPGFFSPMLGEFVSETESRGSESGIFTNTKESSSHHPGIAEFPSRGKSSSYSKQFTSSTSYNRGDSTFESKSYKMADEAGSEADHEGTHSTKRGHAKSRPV
T1 sequence (P02675 31-491): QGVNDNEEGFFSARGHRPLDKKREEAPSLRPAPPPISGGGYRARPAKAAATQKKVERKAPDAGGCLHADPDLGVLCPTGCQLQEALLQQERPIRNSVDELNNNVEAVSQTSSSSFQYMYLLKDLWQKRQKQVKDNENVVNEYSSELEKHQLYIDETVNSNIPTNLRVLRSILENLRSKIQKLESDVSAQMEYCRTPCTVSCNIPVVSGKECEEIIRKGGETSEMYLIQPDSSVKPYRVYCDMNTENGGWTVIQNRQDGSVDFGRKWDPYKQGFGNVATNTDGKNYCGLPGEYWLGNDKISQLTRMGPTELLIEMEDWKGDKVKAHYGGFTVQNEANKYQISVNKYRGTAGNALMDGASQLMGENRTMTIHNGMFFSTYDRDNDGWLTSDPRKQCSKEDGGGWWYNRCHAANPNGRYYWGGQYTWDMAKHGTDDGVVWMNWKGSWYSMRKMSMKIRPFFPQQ
T1 sequence (P02679 27-433 limits assumed): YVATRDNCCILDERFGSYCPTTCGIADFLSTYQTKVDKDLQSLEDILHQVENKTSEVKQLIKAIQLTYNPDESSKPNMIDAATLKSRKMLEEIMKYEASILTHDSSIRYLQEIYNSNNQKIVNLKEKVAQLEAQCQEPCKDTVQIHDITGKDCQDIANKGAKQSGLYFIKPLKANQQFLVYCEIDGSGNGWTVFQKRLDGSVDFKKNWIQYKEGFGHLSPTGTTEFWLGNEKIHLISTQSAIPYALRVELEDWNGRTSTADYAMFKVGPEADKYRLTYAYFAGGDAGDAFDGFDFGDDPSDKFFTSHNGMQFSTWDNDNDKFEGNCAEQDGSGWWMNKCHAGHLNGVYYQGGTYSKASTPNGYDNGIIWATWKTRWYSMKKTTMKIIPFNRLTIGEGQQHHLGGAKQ
Experiment: Fibrinogen clotting assay with coagulation analyzer (Clauss method), clinical fibrinogen standard
Assay type: biochemical
Conditions: clinical standard samples diluted in 1× citrate buffer + TB (4.58 mM), pH 7.4, 37° C.
Experimental: The effect of various chemical compounds on clotting time was determined. […] The chemical additives were added to either clinical fibrinogen standards (Stago; Parsippany NJ) or a 1:20 dilution of the Evicel Biologically Active Component 2 (Ethicon), which is a fibrinogen solution (60 mg/mL) and served as the various samples. The same lot of BAC2 was used within each experiment to minimize lot-lot variability.
The Clauss method was used to measure fibrin clotting time. The clotting assay was performed using the Stago STart® Coagulation Analyzer (Stago; Parsippany, NJ) per manufacturer's protocol. The Stago STart uses a mechanical, viscosity-based detection of clotting, independent of sample color and turbidity. Per the protocol, samples were diluted 1:20 in Owren-Koller buffer (Stago) and allowed to equilibrate for 5 minutes at 37° C. Each sample was loaded in a cuvette with a magnetic bead.
In efforts to improve the visibility of fibrin gels during surgical implantation, it was observed that the inclusion of TB in the gelation mixture improved handling of the liquid phase of the gelation reaction. […] A coagulation analyzer is a specialized clinical instrument that is used to quantify fibrinogen concentrations in patient blood samples via the Clauss Method (Clauss, Acta Haematol., 17:237-46 (1957)). […]

`Cc1cc(-c2ccc(/N=N/c3c(S(=O)(=O)O)cc4cc(S(=O)(=O)O)cc(N)c4c3O)c(C)c2)ccc1/N=N/c1c(S(=O)(=O)O)cc2cc(S(=O)(=O)O)cc(N)c2c1O` [TB, Trypan Blue] was tested, and the “gelation time (clotting time)” value was 14.6 ± 1.5 s.
